We go through 2 compounds from ChEMBL document CHEMBL6153109, “Switching Roles─Exploring Concentration-Dependent Agonistic versus Antagonistic Behavior of Integrin Ligands” (J Med Chem, 2025).

Structures are written as SMILES. Calls of active or inactive are those of the source. No cut-off for these calls is given here.

One data set relates to OV-MZ-6. Description: Inhibition of cell migration in human OV-MZ-6 cells expressing integrin alpha5beta1 assessed as delay in wound gap closure at 1 to 1000 nM measured after 24 to 72 hrs by wound scratch assay relative to control. Type of data set: functional, cell-based. Conditions: dose 1-1000 nM, time 24-72 hrs.
Data set [1] relates to M21. The experiment in a line: Inhibition of cell migration in human M21 cells expressing integrin alphaVbeta3 assessed as delay in wound gap closure at 1 nM measured after 9 to 72 hrs by wound scratch assay. The format is functional, cell-based. The note with it: time 9-72 hrs.
Data set [2] relates to M21. Description: Inhibition of cell adhesion in human M21 cells expressing integrin alphaVbeta3 at 1 uM measured after 48 hrs by microscopic imaging analysis. The format is functional, cell-based.
In data set [3] the target is T1, Integrin alpha-5/beta-1 (Homo sapiens, UniProt P05556+P08648). Description: Agonist activity at integrin alpha5beta1 in human OV-MZ-6 cells assessed as increase in p-FAK expression at 1 nM measured after 30 to 60 mins by Western blot analysis. The format is cell-based. The note with it: time 30-60 min.
The nature of data set [4]: Inhibition of cell migration in human OV-MZ-6 cells expressing integrin alpha5beta1 assessed as cell coverage at 1 uM measured within 72 hrs by wound scratch assay relative to control. Type of data set: functional. On the set-up: scale not given: the % may be the effect or the level left.
In data set [5] the target is T1, Integrin alpha-5/beta-1. The experiment in a line: Agonist activity at integrin alpha5beta1 in human OV-MZ-6 cells assessed as fold increase in p-ERK1/2 expression at 1 uM incubated for 24 hrs by Western blot analysis. Type of data set: cell-based. Conditions: filed as agonist.
The test system of data set [6] is M21. Description: Inhibition of cell migration in human M21 cells expressing integrin alphaVbeta3 assessed as delay in wound gap closure at 1 uM measured after 72 hrs by wound scratch assay. The format is functional, cell-based.
In data set [7] the test system is M21. Description: Inhibition of cell adhesion in human M21 cells expressing integrin alphaVbeta3 at 1 nM measured after 48 hrs by microscopic imaging analysis. Type of data set: functional, cell-based.
The target of data set [8] is T1, Integrin alpha-5/beta-1. Description: Agonist activity at integrin alpha5beta1 in human OV-MZ-6 cells assessed as increase in FAK expression at 1 to 1000 nM measured after 5 to 60 mins by Western blot analysis. Type of data set: cell-based. The note with it: dose 1-1000 nM, time 5-60 min.
The test system of data set [9] is M21. The experiment in a line: Inhibition of cell migration in human M21 cells expressing integrin alphaVbeta3 assessed as cell coverage at 1 uM measured within 72 hrs by wound scratch assay (reference value: 95 %). On the set-up: scale not given: the % may be the effect or the level left. The format is functional.
Data set [10] can be described thus: Drug uptake in human M21 cells overexpressing integrin alphaVbeta3 at 1 uM measured at 60 to 300 mins by Hoechst 33342 staining based fluorescence analysis. The format is ADME, cell-based. Conditions: m21, 1 µM, time 60-300 min.
Data set [11] is described as follows: Drug uptake in human RKO cells overexpressing integrin alpha5beta1 at 1 uM measured at 60 to 300 mins by Hoechst 33342 staining based fluorescence analysis. The format is ADME, cell-based. The note with it: time 60-300 min.
Data set [12] in a line: Drug localization in cell membrane of human RKO cells overexpressing integrin alpha5beta1 at 1 uM measured within 3 mins by CellMask green staining based fluorescence analysis. Type of data set: ADME, cell membranes. Conditions: 0.05 h.
Data set [13] is described as follows: Drug localization in cell membrane of human RKO cells overexpressing integrin alpha5beta1 at 1 uM measured at 30 mins by CellMask green staining based fluorescence analysis. Type of data set: ADME, cell membranes. Conditions: 0.5 h.

For `CC(C)[C@H]1C(=O)N[C@@H](CCCNC(=N)N)C(=O)NCC(=O)N[C@@H](CC(=O)O)C(=O)N[C@H](Cc2ccccc2)C(=O)N1C` [CILENGITIDE], the inhibition result with OV-MZ-6, in the data set on M21 [1] and in the data set with M21 [7] was “inactive” throughout. Also, the inhibition result with M21 [2] and in the data set with M21 [6] was “Active” in each case. Besides, the result at Integrin alpha-5/beta-1 [3] and at Integrin alpha-5/beta-1 [8] was inactive. Further, the Activity in [4] is given as 60%; in the data set with M21 [9] it was 40%. Also, the fold change (FC) on Integrin alpha-5/beta-1 [5] was determined as 3.1.
On to `Cc1cc(OCCCNC(=O)CCCCCNC(=O)CCCCC[N+]2=C(/C=C/C=C/C=C3/N(C)c4ccc5ccccc5c4C3(C)C)C(C)(C)c3c2ccc2ccccc32)cc(C)c1C(=O)N[C@@H](CNC(=O)CNC(=O)c1cccc(NC(=N)N)c1)C(=O)O`, for which the Drug uptake entry in data set [10] was “Not_active”; in data set [11] it was “Active”; in data set [12] it was “Active”; in data set [13] it was “Active”.
